Where “and” joins values, the source holds several entries; their conditions need not be identical. Identical values can stand only once.
Test: molar heat capacity at constant pressure; xn = mol fraction of the nth substance listed
Details: 100 kPa

[Si] [silicon] + [Li]
Details	molar heat capacity at constant pressure
2.03 K, Crystal of intercomponent compound 1, relaxation calorimetry, x2 = 0.81	0.0088 J/K/mol
2.03 K, Crystal of intercomponent compound 2, relaxation calorimeter, x2 = 0.804	0.0022 J/K/mol
2.13 K, Crystal of intercomponent compound 1, relaxation calorimetry, x2 = 0.81	0.0091 J/K/mol
2.13 K, Crystal of intercomponent compound 2, relaxation calorimeter, x2 = 0.804	0.0023 J/K/mol
2.14 K, Crystal of intercomponent compound 2, relaxation calorimeter, x2 = 0.804	0.0022 J/K/mol
2.25 K, Crystal of intercomponent compound 1, relaxation calorimetry, x2 = 0.81	0.0096 J/K/mol
2.25 K, Crystal of intercomponent compound 2, relaxation calorimeter, x2 = 0.804	0.0024 J/K/mol and 0.0023 J/K/mol
2.37 K, Crystal of intercomponent compound 1, relaxation calorimetry, x2 = 0.81	0.0101 J/K/mol
2.37 K, Crystal of intercomponent compound 2, relaxation calorimeter, x2 = 0.804	0.0024 J/K/mol and 0.0025 J/K/mol
2.49 K, Crystal of intercomponent compound 1, relaxation calorimetry, x2 = 0.81	0.0107 J/K/mol
2.49 K, Crystal of intercomponent compound 2, relaxation calorimeter, x2 = 0.804	0.0026 J/K/mol
2.5 K, Crystal of intercomponent compound 2, relaxation calorimeter, x2 = 0.804	0.0025 J/K/mol
2.63 K, Crystal of intercomponent compound 1, relaxation calorimetry, x2 = 0.81	0.0111 J/K/mol
2.63 K, Crystal of intercomponent compound 2, relaxation calorimeter, x2 = 0.804	0.0028 J/K/mol and 0.0025 J/K/mol
2.77 K, Crystal of intercomponent compound 1, relaxation calorimetry, x2 = 0.81	0.0116 J/K/mol
2.77 K, Crystal of intercomponent compound 2, relaxation calorimeter, x2 = 0.804	0.0028 J/K/mol
2.92 K, Crystal of intercomponent compound 1, relaxation calorimetry, x2 = 0.81	0.0121 J/K/mol
2.92 K, Crystal of intercomponent compound 2, relaxation calorimeter, x2 = 0.804	0.0031 J/K/mol and 0.003 J/K/mol
3.08 K, Crystal of intercomponent compound 1, relaxation calorimetry, x2 = 0.81	0.0126 J/K/mol
3.08 K, Crystal of intercomponent compound 2, relaxation calorimeter, x2 = 0.804	0.0032 J/K/mol and 0.003 J/K/mol
3.24 K, Crystal of intercomponent compound 1, relaxation calorimetry, x2 = 0.81	0.0133 J/K/mol
3.24 K, Crystal of intercomponent compound 2, relaxation calorimeter, x2 = 0.804	0.0035 J/K/mol and 0.0032 J/K/mol
3.41 K, Crystal of intercomponent compound 1, relaxation calorimetry, x2 = 0.81	0.0135 J/K/mol
3.41 K, Crystal of intercomponent compound 2, relaxation calorimeter, x2 = 0.804	0.0036 J/K/mol
3.6 K, Crystal of intercomponent compound 1, relaxation calorimetry, x2 = 0.81	0.0141 J/K/mol
3.6 K, Crystal of intercomponent compound 2, relaxation calorimeter, x2 = 0.804	0.0039 J/K/mol and 0.0036 J/K/mol
3.79 K, Crystal of intercomponent compound 1, relaxation calorimetry, x2 = 0.81	0.015 J/K/mol
3.79 K, Crystal of intercomponent compound 2, relaxation calorimeter, x2 = 0.804	0.0041 J/K/mol and 0.004 J/K/mol
3.99 K, Crystal of intercomponent compound 1, relaxation calorimetry, x2 = 0.81	0.0157 J/K/mol
3.99 K, Crystal of intercomponent compound 2, relaxation calorimeter, x2 = 0.804	0.0044 J/K/mol and 0.0042 J/K/mol
4.2 K, Crystal of intercomponent compound 1, relaxation calorimetry, x2 = 0.81	0.0163 J/K/mol
4.2 K, Crystal of intercomponent compound 2, relaxation calorimeter, x2 = 0.804	0.0047 J/K/mol and 0.0044 J/K/mol
4.43 K, Crystal of intercomponent compound 1, relaxation calorimetry, x2 = 0.81	0.0172 J/K/mol
4.43 K, Crystal of intercomponent compound 2, relaxation calorimeter, x2 = 0.804	0.0048 J/K/mol and 0.005 J/K/mol
4.66 K, Crystal of intercomponent compound 2, relaxation calorimeter, x2 = 0.804	0.0051 J/K/mol
4.67 K, Crystal of intercomponent compound 1, relaxation calorimetry, x2 = 0.81	0.0175 J/K/mol
4.67 K, Crystal of intercomponent compound 2, relaxation calorimeter, x2 = 0.804	0.0052 J/K/mol
4.91 K, Crystal of intercomponent compound 2, relaxation calorimeter, x2 = 0.804	0.0056 J/K/mol
4.92 K, Crystal of intercomponent compound 1, relaxation calorimetry, x2 = 0.81	0.0182 J/K/mol
4.92 K, Crystal of intercomponent compound 2, relaxation calorimeter, x2 = 0.804	0.0054 J/K/mol
5 K, Crystal of intercomponent compound 1, relaxation calorimetry + DSC, x2 = 0.81	0.0184 J/K/mol
5 K, Crystal of intercomponent compound 2, relaxation calorimetry + DSC, x2 = 0.804	0.0056 J/K/mol
5.18 K, Crystal of intercomponent compound 1, relaxation calorimetry, x2 = 0.81	0.0193 J/K/mol
5.18 K, Crystal of intercomponent compound 2, relaxation calorimeter, x2 = 0.804	0.006 J/K/mol and 0.0057 J/K/mol
5.46 K, Crystal of intercomponent compound 2, relaxation calorimeter, x2 = 0.804	0.0064 J/K/mol
5.47 K, Crystal of intercomponent compound 1, relaxation calorimetry, x2 = 0.81	0.0201 J/K/mol
5.47 K, Crystal of intercomponent compound 2, relaxation calorimeter, x2 = 0.804	0.0061 J/K/mol
5.76 K, Crystal of intercomponent compound 1, relaxation calorimetry, x2 = 0.81	0.0206 J/K/mol
5.76 K, Crystal of intercomponent compound 2, relaxation calorimeter, x2 = 0.804	0.007 J/K/mol and 0.0066 J/K/mol
6.07 K, Crystal of intercomponent compound 1, relaxation calorimetry, x2 = 0.81	0.0218 J/K/mol
6.07 K, Crystal of intercomponent compound 2, relaxation calorimeter, x2 = 0.804	0.0075 J/K/mol and 0.0071 J/K/mol
6.39 K, Crystal of intercomponent compound 1, relaxation calorimetry, x2 = 0.81	0.0227 J/K/mol
6.39 K, Crystal of intercomponent compound 2, relaxation calorimeter, x2 = 0.804	0.0083 J/K/mol and 0.0079 J/K/mol
6.73 K, Crystal of intercomponent compound 1, relaxation calorimetry, x2 = 0.81	0.0242 J/K/mol
6.73 K, Crystal of intercomponent compound 2, relaxation calorimeter, x2 = 0.804	0.0091 J/K/mol and 0.0088 J/K/mol
7.09 K, Crystal of intercomponent compound 1, relaxation calorimetry, x2 = 0.81	0.0252 J/K/mol
7.09 K, Crystal of intercomponent compound 2, relaxation calorimeter, x2 = 0.804	0.0098 J/K/mol and 0.01 J/K/mol
7.47 K, Crystal of intercomponent compound 1, relaxation calorimetry, x2 = 0.81	0.0267 J/K/mol
7.47 K, Crystal of intercomponent compound 2, relaxation calorimeter, x2 = 0.804	0.0113 J/K/mol and 0.0109 J/K/mol
7.87 K, Crystal of intercomponent compound 1, relaxation calorimetry, x2 = 0.81	0.0284 J/K/mol
7.87 K, Crystal of intercomponent compound 2, relaxation calorimeter, x2 = 0.804	0.0126 J/K/mol and 0.0123 J/K/mol
8.29 K, Crystal of intercomponent compound 2, relaxation calorimeter, x2 = 0.804	0.0143 J/K/mol and 0.0139 J/K/mol
8.3 K, Crystal of intercomponent compound 1, relaxation calorimetry, x2 = 0.81	0.0304 J/K/mol
8.74 K, Crystal of intercomponent compound 1, relaxation calorimetry, x2 = 0.81	0.0327 J/K/mol
8.74 K, Crystal of intercomponent compound 2, relaxation calorimeter, x2 = 0.804	0.016 J/K/mol and 0.0162 J/K/mol
9.2 K, Crystal of intercomponent compound 1, relaxation calorimetry, x2 = 0.81	0.0351 J/K/mol
9.2 K, Crystal of intercomponent compound 2, relaxation calorimeter, x2 = 0.804	0.0183 J/K/mol and 0.0187 J/K/mol
9.69 K, Crystal of intercomponent compound 2, relaxation calorimeter, x2 = 0.804	0.0216 J/K/mol and 0.0208 J/K/mol
9.7 K, Crystal of intercomponent compound 1, relaxation calorimetry, x2 = 0.81	0.038 J/K/mol
10 K, Crystal of intercomponent compound 1, relaxation calorimetry + DSC, x2 = 0.81	0.0403 J/K/mol
10 K, Crystal of intercomponent compound 2, relaxation calorimetry + DSC, x2 = 0.804	0.0233 J/K/mol
10.22 K, Crystal of intercomponent compound 1, relaxation calorimetry, x2 = 0.81	0.0412 J/K/mol
10.22 K, Crystal of intercomponent compound 2, relaxation calorimeter, x2 = 0.804	0.0245 J/K/mol and 0.025 J/K/mol
10.75 K, Crystal of intercomponent compound 1, relaxation calorimetry, x2 = 0.81	0.0449 J/K/mol
10.75 K, Crystal of intercomponent compound 2, relaxation calorimeter, x2 = 0.804	0.0286 J/K/mol and 0.0291 J/K/mol
11.32 K, Crystal of intercomponent compound 1, relaxation calorimetry, x2 = 0.81	0.0492 J/K/mol
11.32 K, Crystal of intercomponent compound 2, relaxation calorimeter, x2 = 0.804	0.0342 J/K/mol and 0.0335 J/K/mol
11.93 K, Crystal of intercomponent compound 1, relaxation calorimetry, x2 = 0.81	0.0547 J/K/mol
11.93 K, Crystal of intercomponent compound 2, relaxation calorimeter, x2 = 0.804	0.0403 J/K/mol and 0.0398 J/K/mol
12.56 K, Crystal of intercomponent compound 1, relaxation calorimetry, x2 = 0.81	0.0613 J/K/mol

— the NIST ThermoML archive (doi:10.1016/j.jct.2015.01.004)
